Results reported in patent publication US7241803B2, “Compounds for inhibition of HIV infection by blocking HIV entry” (New York Blood Center, priority 2002, dated 2007).
Values after ≈ are worked out from the molar mass of the structure shown.

What was measured:
[1] = tested on: MT-2 cells; settings: trypan blue, 2 hr
Procedure: Detection of in vitro cytotoxicity. The in vitro cytotoxicity of compounds for MT-2 cells was measured using trypan blue dye exclusion assay (41). Briefly, 100 μl of MT-2 cells (2×10^6/ml) were incubated with an equal volume of a compound diluted in culture media at graded concentrations at 37° C. for 2 hr. Ten microliters of cell suspension was transferred to a well of round-bottom plate and mixed with 10 μl of 0.04% trypan blue solution. The number of viable cells was counted using a hemocytometer under a microscope. The CC50 (the concentration for 50% cytotoxicity) values were calculated using the software Calcusyn (6).

[2] = tested on: HIV-1IIIB; assay: inhibition of HIV-1IIIB replication (p24 production) in MT-2 cells; format: cell-based; settings: for IC50: HIV-1IIIB replication, MT-2 cells; for inhibitory activity on HIV-1IIIB replication: concentration up to 80 μg/ml
From the text: (§1) Assessment of anti-HIV-1 infectivity. […] Reactions were terminated by addition of 1N H2SO4.

[3] = tested on: HIV-1 93BR020 (clade F, X4R5); settings: Primary 93BR020 (clade F, X4R5), PBMCs
Procedure: (§2) Inhibitory activity of compounds on infection by primary HIV-1 isolates was determined as previously described (41). PBMCs were isolated from the blood of healthy donors at the New York Blood Center by standard density gradient centrifugation using Histopaque-1077 (Sigma). The cells were plated in 75 cm^2 plastic flasks and incubated at 37° C. for 2 hrs. The nonadherent cells were collected and resuspended at 5×10^6 in 10 ml RPMI-1640 medium containing 10% FBS, 5 μg/ml PHA and 100 U/ml IL-2 (Sigma), followed by incubation at 37° C. for 3 days. The PHA-stimulated cells were infected with corresponding primary HIV-1 isolates at 0.01 multiplicity of infection (MOI) in the absence or presence of a compound at graded concentrations. Culture media were changed every 3 days. The supernatants were collected 7 days post-infection and tested for p24 antigen by ELISA as described above. The percent inhibition of p24 production and IC50 values were calculated as described above.

[4] = tested on: HIV-1 93TH051 (clade E, X4R5); settings: Primary 93TH051 (clade E, X4R5), PBMCs
Procedure: as §2

[5] = tested on: HIV-1 RU570 (clade G, R5); settings: Primary RU570 (clade G, R5), PBMCs
Procedure: as §2

[6] = tested on: 5.25M7 & PBMCs infected by 92UG029 (clade A, X4)
Procedure: (§3) Inhibition of fusion between PBMCs infected by primary HIV-1 strains (X4 and R5 viruses) with CEMx174 5.25 M7 cells, which express CD4 and both coreceptors, CXCR4 and CCR5, was determined by a luciferase assay. Briefly, 50 μl of compound at graded concentration in triplicate was incubated with equal volume of PHA-stimulated PBMCs (1×10^5/ml) infected by corresponding primary HIV-1 strains, respectively, for 7 days as described above. After incubation at 37° C. for 30 min, 100 μl of CEMx174 5.25 M7 cells (2×10^5) were added and incubated at 37° C. for three days. The cells were collected, washed, and lysed with the lysing reagent included in the luciferase kit (Promega, Corp., Madison, Wis.). Aliquots of cell lysates were transferred to 96-well flat-bottom luminometer plates (Costar, Corning Inc., Corning, N.Y.), followed by addition of luciferase substrate (Promega). The luciferase activity was measured in the Ultra 384 luminometer (Tecan).

[7] = tested on: 5.25M7 & PBMCs infected by 92UG657 (clade B, R5)
Procedure: as §3

[8] = tested on: 5.25M7 & PBMCs infected by 93BR020 (clade F, X4R5)
Procedure: as §3

[9] = tested on: 5.25M7 & PBMCs infected by CMU02 (clade E, R5)
Procedure: as §3

[10] = tested on: H9/HIV-1IIIB cells cocultured with MT-2 cells; assay: syncytium-formation assay for screening HIV-1 fusion inhibitors; format: cell-based; settings: single dose 25 μg/ml
From the text: Syncytium-formation assay for screening HIV-1 fusion inhibitors. […] HIV-1 induced syncytium formation was observed under an inverted microscope and scored as “−” (no syncytium was observed), “±” (about 50% syncytia were inhibited), and “+” (no syncytium formation was inhibited). The compounds scored with “−” and “±” were selected for further screening by ELISA for inhibitors against the gp41 six-helix bundle formation.

[11] = tested on: HIV-1IIIB; assay: time-of-addition assay; format: cell-based; settings: for time of addition at which HIV replication is inhibited: summary statement
Procedure: as §1
MT-2 cells were incubated with HIV-1IIIB at 37° C. for 0, 1, 2, 3, 4, 6, and 8 hrs, respectively, before addition of the test compounds at 10 μg/ml. AZT (2.5 μM) was used as a control. After culture for another 2 hrs, the cells were washed to remove the free virus and compounds. The supernatants were collected on day 4 post-infection for measurement of p24 production.

[12] = biological target: gp41 six-helix bundle formed by N36 and C34-FITC (Human immunodeficiency virus type 1 group M subtype B, UniProt P04578); settings: 200 μg/ml; for gp41 six-helix bundle formation in FN-PAGE: added after N36 preincubated with C34-FITC; for gp41 six-helix bundle band in FN-PAGE: preincubated with N36 before addition of C34-FITC
Procedure: Fluorescence native polyacrylamide gel electrophoresis (FN-PAGE). FN-PAGE was performed as previously described (32). Briefly, 18% pre-cast Tris-Glycine gels and Novex X-Cell II Mini cell (Invitrogen, Carlsbad, Calif.) were used for native-PAGE. […] In the control, N36 was incubated with C34-FITC at 37° C. for 30 min before addition of the compounds. After incubation at 37° C. for another 30 min, the mixture was diluted in Tris-Glycine native sample buffer, then loaded to 10×1.0 mm wells. Gel electrophdrosis was carried out with 125 V constant voltage at room temperature for about 90 min in Tris-Glycine native running buffer. Immediately after electrophoresis, image of the fluorescence bands in the gel was taken by the FluorChem 8800 Imaging System (Alpha Innotech corp., San Leandro, Calif.) using a transillumination UV light source with excitation wavelength at 302 nm and a fluorescence filter with emission wavelength at 520 nm.

[13] = 10 μg/ml added one hour or longer after virus
[14] = 10 μg/ml added to the cells with virus together

Chain of gp41 six-helix bundle formed by N36 and C34-FITC (P04578 546-581): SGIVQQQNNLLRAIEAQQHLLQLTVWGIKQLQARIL

For `Cc1ccc(C)n1-c1ccc(C(=O)O)c(O)c1` [NB-2], the CC50 [1] was 305.60 ± 5.04 µg/mL (≈ 1320 µM), the IC50 [2] was 0.24 ± 0.05 µg/mL (≈ 1.04 µM) and the “inhibitory activity on HIV-1IIIB replication” value [2] was “significantly inhibited”. The “IC50 (μg/ml) for inhibition of p24 production” value [3] was 2.50 ± 0.01 µg/mL, the “IC50 (μg/ml) for inhibition of p24 production” value [4] was 1.15 ± 0.14 µg/mL and the “IC50 (μg/ml) for inhibition of p24 production” value [5] was 23.12 ± 1.23 µg/mL. For the same compound, the “IC50 (μg/ml) for inhibition of cell-cell fusion” value [6] was 2.50 ± 0.02 µg/mL, the “IC50 (μg/ml) for inhibition of cell-cell fusion” value [7] was 6.64 ± 1.13 µg/mL and the “IC50 (μg/ml) for inhibition of cell-cell fusion” value [8] was 1.66 ± 0.07 µg/mL. The “IC50 (μg/ml) for inhibition of cell-cell fusion” value [9] was 8.14 ± 1.09 µg/mL, the “inhibition of HIV-1 mediated syncytium formation” value [10] was “significantly inhibited” and the “inhibition of HIV-1 replication, time of addition” value (“inhibition of HIV-1 replication” below) [11, 13] was “no inhibitory activity”. The “inhibition of HIV-1 replication” value [11, 14] was “inhibited HIV-1 replication”, the “time of addition at which HIV replication is inhibited” value [11] was “only when they were added to the cells less than two hours after virus addition” and the “gp41 six-helix bundle formation in FN-PAGE” value [12] was “not inhibited”. For the same compound, the “gp41 six-helix bundle band in FN-PAGE” value [12] was “the intensity of the upper bands were significantly decreased”.

For `O=C(O)c1cc(-n2cccc2)ccc1Cl` [NB-64], the CC50 [1] was >500 µg/mL, the IC50 [2] was 0.49 ± 0.09 µg/mL (≈ 2.21 µM) and the “inhibitory activity on HIV-1IIIB replication” value [2] was “significantly inhibited”. For the same compound, the “IC50 (μg/ml) for inhibition of p24 production” value [3] was 1.05 ± 0.18 µg/mL, the “IC50 (μg/ml) for inhibition of p24 production” value [4] was 5.24 ± 1.80 µg/mL and the “IC50 (μg/ml) for inhibition of p24 production” value [5] was 8.81 ± 0.24 µg/mL. For the same compound, the “IC50 (μg/ml) for inhibition of cell-cell fusion” value [6] was 2.21 ± 0.56 µg/mL, the “IC50 (μg/ml) for inhibition of cell-cell fusion” value [7] was 39.00 ± 5.27 µg/mL and the “IC50 (μg/ml) for inhibition of cell-cell fusion” value [8] was 2.24 ± 0.31 µg/mL. The “IC50 (μg/ml) for inhibition of cell-cell fusion” value [9] was 4.89 ± 1.08 µg/mL, the “inhibition of HIV-1 mediated syncytium formation” value [10] was “significantly inhibited” and the “inhibition of HIV-1 replication” value [11, 13] was “no inhibitory activity”. The “inhibition of HIV-1 replication” value [11, 14] was “inhibited HIV-1 replication”, the “time of addition at which HIV replication is inhibited” value [11] was “only when they were added to the cells less than two hours after virus addition” and the “gp41 six-helix bundle formation in FN-PAGE” value [12] was “not inhibited”. For the same compound, the “gp41 six-helix bundle band in FN-PAGE” value [12] was “the intensity of the upper bands were significantly decreased”.
